SMILES strings stand for the structures.

The test system of assay [1] is matrix metallopeptidase-9 (MMP-9). Kind of assay: Serum MMP-9 by ELISA in TLE rats. In kind it is in vivo. Particulars: compared to the TLE control rats; intranasal, 7 days. The method, then:
(§1) Temporal lobe epilepsy (TLE) was induced in rats using the pilocarpine model according to the method of Arshad et al.. Prior to the experiment, rats were housed in plastic cages at October University for Modern Science and Arts under controlled environmental conditions (temperatures of 25°±3°C and 50% humidity) with free access to water and softened standard pellet chow. The rats were injected with pilocarpine (300 mg/kg; i.p.) to induce status epilepticus (SE). Atropine (1 mg/kg; i.p.) was injected 30 minutes before pilocarpine injection to antagonize the peripheral muscarinic activity. SE was defined using the modified Racine scale by observing seizure severity categorized as stages 4 and 5. […] The SE seizures were left to last for 3 hours to induce hippocampus damage, after which diazepam (10 mg/kg; i.p.) was injected to attenuate the seizures. Lubricant ophthalmic gel was applied with a cotton swab to each eye to prevent the corneas from drying out during the seizures. The rats were hydrated with sterile Ringer's lactate injections (1 mL, i.p.) for 3 days post-SE induction. […]
The serum levels of neuron-specific enolase (NSE), matrix metallopeptidase-9 (MMP-9), neurofilament light polypeptide (NEFL), and brain-derived neurotrophic factor (BDNF) were measured by ELISA technique using the following standard kits CAT no. […]
(In general: ELISA stands for enzyme-linked immunosorbent assay.)

For the next assay, the system named is brain hippocampus. In words: Histopathological examination of the brain hippocampus in TLE rats. In kind it is in vivo. The note with it: H&E, Fig. 12. The method, then:
as §1, with “Arshad” left out, “induction. Animal welfare assessments were conducted multiple times per day for several days after the induction of SE.” for “induction.”

`NS(=O)(=O)Cc1noc2ccccc12` [ZNS, Zonisamide]: the “decrease in serum level of MMP-9” value in assay [1] worked out at 40.1%. In addition, in the assay on brain hippocampus, the “hippocampal histopathology, result in words” value was “noticeable neuroprotective efficacy”.

Values taken from paper PMC13538172, “Zonisamide nanodiamonds for brain targeting: A comprehensive study utilising in silico, in vitro, in vivo, and molecular investigation for successful nose-to-brain delivery for epilepsy management” (Drug Delivery and Translational Research, 2025).
